Data taken from patent US20210169910A1, “OLEUROPEIN FOR USE IN REDUCING POST-PRANDIAL GLYCAEMIA” (Università degli Studi di Roma "La Sapienza", priority 2017, published 2021).

Columns and labels:
Assay type in all cases: in vivo, human
[1] = system: Nox2; assay: Serum Nox2 measured as soluble Nox2-derived peptide (sNox2dp) by ELISA, post-prandial cross-over study; settings: healthy subjects (n=20), 20 mg immediately before lunch, T120 (2 h after meal) vs T0
Description: (§1) The design was a randomized, double blind, placebo controlled, crossover study (FIG. 1). Participants were randomized to receive 20 mg of oleuropein or 20 mg of placebo immediately before a lunch. The randomization was carried out by a procedure based on a random numeric sequence. Placebo and active capsules were identical in appearance and both were odourless. The quality control on both capsules was performed confirming their safety. None of the participants were receiving any vitamin or antioxidant supplements, statin or antiplatelet drugs in the month preceding the beginning of the study. […] Participants were assessed at baseline (T0) and two hours after lunch (T120). Glycaemic profile, which included glucose, insulin, dipeptidyl-peptidase-4 (DPP-4) activity and glucagon-like peptide-(GLP-1) and oxidative stress, which included sNox2-dp, 8-iso-PGF2α and platelet p47phox phosphorylation, were analysed before and two hours after meal. […]
Serum Nox2 was measured as soluble Nox2-derived peptide (sNOX2dp) with an ELISA method, which was partly modified in comparison to that previously reported (Pignatelli et al., 2010; WO 2010142794 A1). […]
4) quantification of immobilized antibody enzyme conjugates by monitoring HRP activities in the presence of the substrate 3,3′,5,5′-tetramethylbenzidine (TMB). […] Values were expressed as pg/ml; intra-assay and inter-assay coefficients of variation were <10%.

[2] = system: 8-iso-PGF2α; assay: Serum isoprostanes (8-iso-PGF2α-III) enzyme immunoassay, post-prandial cross-over study; settings: healthy subjects (n=20), 20 mg immediately before lunch, T120 vs T0
Description: as §1, with “study. Others exclusion criteria were: i) presence of malignancy, ii) presence of chronic inflammatory diseases, iii) alcohol intake, iv) smoking, v) pregnant or breast-feeding, vi) age less than 18 years.” for “study.”
Serum isoprostanes (8-iso-PGF2α-III) were measured by the enzyme immunoassay method (DRG International) and expressed as pmol/L. Intra-assay and inter-assay coefficients of variation were <10%.

[3] = system: p47phox; assay: Western blot analysis of platelet p47phox phosphorylation, post-prandial cross-over study; settings: healthy subjects (n=5), 20 mg immediately before lunch, T120 vs T0
Description: as §1
p47^phox phosphorylation was analysed in platelets prepared as previously described [13 Carnevale et al., 2014 a)]. […] Then, the membranes were incubated with goat anti-rabbit secondary antibody (Santa Cruz Biotechnology—Product Code sc2004, 1:5000) or with goat anti-mouse secondary antibody (Santa Cruz Biotechnology—Product Code sc2005, 1:5000) and then the immune complexes were detected by enhanced chemiluminescence substrate. […]

[4] = Serum glucose concentration, post-prandial cross-over study
Description: as §1, with “study. Others exclusion criteria were: i) presence of malignancy, ii) presence of chronic inflammatory diseases, iii) alcohol intake, iv) smoking, v) pregnant or breast-feeding, vi) age less than 18 years.” for “study.”
(§2) Glucose and insulin were measured in serum samples using ELISA commercial Kit (Arbor Assay and DRG International, respectively). Glucose values were expressed as mg/dl whereas insulin values were expressed as μIU/ml.

[5] = system: insulin; assay: Serum insulin concentration, post-prandial cross-over study; settings: healthy subjects (n=20), 20 mg immediately before lunch, T120 vs T0
Description: as §1, with “study. Others exclusion criteria were: i) presence of malignancy, ii) presence of chronic inflammatory diseases, iii) alcohol intake, iv) smoking, v) pregnant or breast-feeding, vi) age less than 18 years.” for “study.”
as §2

[6] = system: GLP1; assay: Serum glucagon like peptide-1 (GLP1) concentration, post-prandial cross-over study; settings: healthy subjects (n=20), 20 mg immediately before lunch, T120 vs T0
Description: as §1, with “study. Others exclusion criteria were: i) presence of malignancy, ii) presence of chronic inflammatory diseases, iii) alcohol intake, iv) smoking, v) pregnant or breast-feeding, vi) age less than 18 years.” for “study.”
Commercial ELISA Kit (DRG International) was used for the quantitative determination of bioactive GLP1 (7-36) and (9-36) levels in serum. GLP1 values are expressed as pmol/L.

[7] = system: DPP-4; assay: Serum dipeptidyl peptidase-4 (DPP-4) activity, post-prandial cross-over study; settings: healthy subjects (n=20), 20 mg immediately before lunch, T120 vs T0
Description: as §1, with “study. Others exclusion criteria were: i) presence of malignancy, ii) presence of chronic inflammatory diseases, iii) alcohol intake, iv) smoking, v) pregnant or breast-feeding, vi) age less than 18 years.” for “study.”
DDP4 activity was evaluated in serum samples by a commercial assay (Sigma Aldrich). […] DDP4 activity was expressed as μU/ml, where one unit of DPP4 is the amount of enzyme that will hydrolyze the DPP4 substrate to yield 1.0 μmole of AMC per minute at 37° C.

Compound: C/C=C1/[C@H](O[C@@H]2O[C@H](CO)[C@@H](O)[C@H](O)[C@H]2O)OC=C(C(=O)OC)[C@H]1CC(=O)OCCc1ccc(O)c(O)c1 [oleuropein]
- sNox2-dp, Δ change compared to baseline [1]: 25%
- 8-iso-PGF2α, Δ change compared to baseline [2]: 8%
- platelet p47phox phosphorylation, Δ change compared to baseline [3]: 42%
- blood glucose, Δ change compared to baseline ([4]; healthy subjects (n=20), 20 mg immediately before lunch, T120 vs T0): 2%
- average reduction of glucose ([4]; healthy subjects, 20 mg versus placebo, post-prandial): 14 mg/dL
- blood insulin, Δ change compared to baseline [5]: 116%
- GLP1, Δ change compared to baseline [6]: 19%
- DPP-4 activity, Δ change compared to baseline [7]: 35%
